# Experimental data taken from patent US20240208992A1, “MACROCYCLES AS CFTR MODULATORS” (Idorsia Pharmaceuticals Ltd, priority 2021, published 2024).
# Molecular target: human F508del-CFTR (Homo sapiens, UniProt P13569, DEL508-508)
# Assay: F508del-CFTR cell surface expression (corrector activity), DiscoveRx ß-galactosidase complementation chemiluminescence assay in recombinant U2OS cell line;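 note: U2OS cells co-expressing ProLink-tagged F508del-CFTR and a membrane-anchored enzyme acceptor, where more surface CFTR restores β-galactosidase activity measured by chemiluminescence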
# Conditions: for EC50: EC50, F508del-CFTR cell surface expression, U2OS cells, 16h compound incubation, geomean values; for Emax: U2OS, in relation to Emax of corrector lumacaftor (=100%), arithmetic mean values
# human F508del-CFTR, sequence (P13569 with tags, fused parts or gaps DEL508-508): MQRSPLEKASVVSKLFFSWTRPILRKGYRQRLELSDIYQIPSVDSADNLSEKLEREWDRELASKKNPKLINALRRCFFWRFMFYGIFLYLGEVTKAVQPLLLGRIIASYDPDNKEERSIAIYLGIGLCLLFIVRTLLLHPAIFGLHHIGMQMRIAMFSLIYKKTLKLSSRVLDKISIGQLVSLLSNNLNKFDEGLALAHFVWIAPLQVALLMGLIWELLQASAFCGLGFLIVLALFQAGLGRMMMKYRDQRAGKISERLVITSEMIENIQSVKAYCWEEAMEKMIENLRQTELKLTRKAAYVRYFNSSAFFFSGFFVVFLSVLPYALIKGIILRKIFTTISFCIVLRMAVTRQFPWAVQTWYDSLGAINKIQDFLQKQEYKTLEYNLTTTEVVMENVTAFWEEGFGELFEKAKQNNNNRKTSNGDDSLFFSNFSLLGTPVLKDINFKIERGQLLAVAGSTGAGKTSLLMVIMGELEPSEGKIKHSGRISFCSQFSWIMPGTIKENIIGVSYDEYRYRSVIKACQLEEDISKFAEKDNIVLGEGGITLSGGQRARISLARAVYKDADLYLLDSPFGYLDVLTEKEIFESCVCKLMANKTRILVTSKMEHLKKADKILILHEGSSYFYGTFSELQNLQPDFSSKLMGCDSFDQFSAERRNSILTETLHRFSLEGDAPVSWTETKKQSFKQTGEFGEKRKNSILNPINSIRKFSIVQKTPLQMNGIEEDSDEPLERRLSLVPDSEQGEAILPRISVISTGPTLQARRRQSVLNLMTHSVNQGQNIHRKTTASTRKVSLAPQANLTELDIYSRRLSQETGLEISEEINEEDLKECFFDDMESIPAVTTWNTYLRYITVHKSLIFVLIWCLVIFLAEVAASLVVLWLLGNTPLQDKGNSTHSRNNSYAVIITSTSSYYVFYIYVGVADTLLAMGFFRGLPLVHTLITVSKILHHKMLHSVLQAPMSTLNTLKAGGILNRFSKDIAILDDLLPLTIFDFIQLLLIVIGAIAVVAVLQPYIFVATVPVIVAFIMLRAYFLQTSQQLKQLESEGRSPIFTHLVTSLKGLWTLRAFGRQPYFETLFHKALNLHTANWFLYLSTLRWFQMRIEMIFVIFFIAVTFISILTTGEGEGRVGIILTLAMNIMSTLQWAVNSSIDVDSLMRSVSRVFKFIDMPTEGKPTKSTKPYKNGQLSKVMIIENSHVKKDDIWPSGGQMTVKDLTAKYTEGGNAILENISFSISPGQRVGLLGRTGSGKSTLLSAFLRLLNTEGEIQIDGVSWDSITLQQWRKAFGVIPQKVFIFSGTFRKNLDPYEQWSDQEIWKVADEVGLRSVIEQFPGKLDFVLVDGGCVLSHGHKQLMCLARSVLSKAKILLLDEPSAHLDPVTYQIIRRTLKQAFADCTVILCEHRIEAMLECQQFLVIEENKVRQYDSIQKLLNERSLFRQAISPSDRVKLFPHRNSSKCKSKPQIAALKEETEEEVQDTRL
Compound,EC50 [nM],Emax [%]
"COc1cccc(CCNC(=O)[C@@H]2CC(=O)N(C)[C@@H](CC(C)C)C(=O)N(C)C3(CC3)C(=O)N[C@H](Cc3ccccc3)COc3ccc4nc(C)oc4c3C(=O)N2)c1 [Example 628, (8′R,14′S,18′S)-8′-benzyl-14′-isobutyl-N-(3-methoxyphenethyl)-2′,12′,15′-trimethyl-10′,13′,16′,20′-tetraoxo-7′,8′,9′,10′,13′,14′,15′,16′,17′,18′,19′,20′-dodecahydro-12′H-spiro[cyclopropane-1,11′-oxazolo[4′,5′:5,6]benzo[1,2-p][1]oxa[4,7,10,14]tetraazacycloheptadecine]-18′-carboxamide]",363,355
"Cc1cc(CCNC(=O)[C@@H]2CC(=O)N(C)[C@@H](CC(C)C)C(=O)N3CCCC[C@@H]3C(=O)N[C@H](Cc3ccccc3)COc3ccc4c(C)noc4c3C(=O)N2)on1 [Example 629, (8S,12S,18aR,21R)-21-benzyl-12-isobutyl-3,11-dimethyl-N-(2-(3-methylisoxazol-5-yl)ethyl)-6,10,13,19-tetraoxo-6,7,8,9,10,11,12,13,16,17,18,18a,19,20,21,22-hexadecahydro-15H-isoxazolo[4′,5′:5,6]benzo[1,2-p]pyrido[2,1-f][1]oxa[4,7,10,14]tetraazacycloheptadecine-8-carboxamide]",521,215
"Cc1cc(CCNC(=O)[C@@H]2CC(=O)N(C)[C@@H](CC3CCCC3)C(=O)N3CCCC[C@@H]3C(=O)N[C@H](Cc3ccccc3)COc3ccc4c(C)noc4c3C(=O)N2)on1 [Example 630, (8S,12S,18aR,21R)-21-benzyl-12-(cyclopentylmethyl)-3,11-dimethyl-N-(2-(3-methylisoxazol-5-yl)ethyl)-6,10,13,19-tetraoxo-6,7,8,9,10,11,12,13,16,17,18,18a,19,20,21,22-hexadecahydro-15H-isoxazolo[4′,5′:5,6]benzo[1,2-p]pyrido[2,1-f][1]oxa[4,7,10,14]tetraazacycloheptadecine-8-carboxamide]",261,175
"Cc1cc(CCNC(=O)[C@@H]2CC(=O)N(C)[C@@H](CC3CCCC3)C(=O)N3CCCC[C@H]3C(=O)N[C@H](Cc3ccccc3)COc3ccc4c(C)noc4c3C(=O)N2)on1 [Example 631, (8S,12S,18aS,21R)-21-benzyl-12-(cyclopentylmethyl)-3,11-dimethyl-N-(2-(3-methylisoxazol-5-yl)ethyl)-6,10,13,19-tetraoxo-6,7,8,9,10,11,12,13,16,17,18,18a,19,20,21,22-hexadecahydro-15H-isoxazolo[4′,5′:5,6]benzo[1,2-p]pyrido[2,1-f][1]oxa[4,7,10,14]tetraazacycloheptadecine-8-carboxamide]",898,133
"CO[C@H]1C[C@]2(C1)C(=O)N[C@H](Cc1ccccc1)COc1ccc3ccccc3c1C(=O)N[C@H](C(=O)NCCc1cc(C)no1)CC(=O)N(C)[C@@H](CC(C)C)C(=O)N2C [Example 633, (1r,3S,3′S,7′S,13′R)-13′-benzyl-7′-isobutyl-3-methoxy-6′,9′-dimethyl-N-(2-(3-methylisoxazol-5-yl)ethyl)-1′,5′,8′,11′-tetraoxo-2′,3′,4′,5′,6′,7′,8′,9′,11′,12′,13′,14′-dodecahydro-1′H-spiro[cyclobutane-1,10′-naphtho[1,2-p][1]oxa[4,7,10,14]tetraazacycloheptadecine]-3′-carboxamide]",652,316
"Cc1noc2c3c(ccc12)OC[C@@H](Cc1ccccc1)NC(=O)[C@H]1CCCCN1C(=O)[C@H](CC(C)C)N(C)C(=O)C[C@@H](C(=O)NCCc1c(F)cccc1F)NC3=O [Example 634, (8S,12S,18aR,21R)-21-benzyl-N-(2,6-difluorophenethyl)-12-isobutyl-3,11-dimethyl-6,10,13,19-tetraoxo-6,7,8,9,10,11,12,13,16,17,18,18a,19,20,21,22-hexadecahydro-15H-isoxazolo[4′,5′:5,6]benzo[1,2-p]pyrido[2,1-f][1]oxa[4,7,10,14]tetraazacycloheptadecine-8-carboxamide]",173,178
"Cc1noc2c3c(ccc12)OC[C@@H](Cc1ccccc1)NC(=O)[C@@H]1CCCCN1C(=O)[C@H](CC(C)C)N(C)C(=O)C[C@@H](C(=O)NCCc1c(F)cccc1F)NC3=O [Example 635, (8S,12S,18aS,21R)-21-benzyl-N-(2,6-difluorophenethyl)-12-isobutyl-3,11-dimethyl-6,10,13,19-tetraoxo-6,7,8,9,10,11,12,13,16,17,18,18a,19,20,21,22-hexadecahydro-15H-isoxazolo[4′,5′:5,6]benzo[1,2-p]pyrido[2,1-f][1]oxa[4,7,10,14]tetraazacycloheptadecine-8-carboxamide]",404,112
"CC(C)C[C@H]1C(=O)N2CCCC[C@@H]2C(=O)N[C@H](Cc2ccccc2)COc2cnc3ccc(F)cc3c2C(=O)N[C@H](C(=O)NCCc2c(F)cccc2F)CC(=O)N1C [Example 636, (9S,13S,19aR,22R)-22-benzyl-N-(2,6-difluorophenethyl)-5-fluoro-13-isobutyl-12-methyl-7,11,14,20-tetraoxo-7,8,9,10,11,12,13,14,17,18,19,19a,20,21,22,23-hexadecahydro-16H-pyrido[2′,1′:6,7][1]oxa[4,7,10,14]tetraazacycloheptadecino[17,16-c]quinoline-9-carboxamide]",91,276
"CC(C)C[C@H]1C(=O)N2CCCC[C@@H]2C(=O)N[C@H](Cc2ccccc2)COc2cnc3ccc(F)cc3c2C(=O)N[C@H](C(=O)NCCc2noc(C3CC3)n2)CC(=O)N1C [Example 637, (9S,13S,19aR,22R)-22-benzyl-N-(2-(5-cyclopropyl-1,2,4-oxadiazol-3-yl)ethyl)-5-fluoro-13-isobutyl-12-methyl-7,11,14,20-tetraoxo-7,8,9,10,11,12,13,14,17,18,19,19a,20,21,22,23-hexadecahydro-16H-pyrido[2′,11:6,7][1]oxa[4,7,10,14]tetraazacycloheptadecino[17,16-c]quinoline-9-carboxamide]",106,300

# Second part, the molecule after the results:
EC50 [nM],Emax [%],Compound
927,326,"Cc1cc(CCNC(=O)[C@@H]2CC(=O)N(C)[C@@H](CC(C)C)C(=O)N3CCCC[C@@H]3C(=O)N[C@H](Cc3ccccc3)COc3ccc4nc(C)oc4c3C(=O)N2)on1 [Example 632, (8S,12S,18aR,21R)-21-benzyl-12-isobutyl-4,11-dimethyl-N-(2-(3-methylisoxazol-5-yl)ethyl)-6,10,13,19-tetraoxo-6,7,8,9,10,11,12,13,16,17,18,18a,19,20,21,22-hexadecahydro-15H-oxazolo[4′,5′:5,6]benzo[1,2-p]pyrido[2,1-f][1]oxa[4,7,10,14]tetraazacycloheptadecine-8-carboxamide]"
182,297,"CC(C)C[C@H]1C(=O)N2CCCC[C@@H]2C(=O)N[C@H](Cc2ccccc2)COc2cnc3c(F)cccc3c2C(=O)N[C@H](C(=O)NCCc2cc(C3CC3)on2)CC(=O)N1C [Example 638, (9S,13S,19aR,22R)-22-benzyl-N-(2-(5-cyclopropylisoxazol-3-yl)ethyl)-3-fluoro-13-isobutyl-12-methyl-7,11,14,20-tetraoxo-7,8,9,10,11,12,13,14,17,18,19,19a,20,21,22,23-hexadecahydro-16H-pyrido[2′,11:6,7][1]oxa[4,7,10,14]tetraazacycloheptadecino[17,16-c]quinoline-9-carboxamide]"
173,305,"CC(C)C[C@H]1C(=O)N2CCCC[C@@H]2C(=O)N[C@H](Cc2ccccc2)COc2cnc3ccc(F)cc3c2C(=O)N[C@H](C(=O)NCCc2cc(C3CC3)on2)CC(=O)N1C [Example 639, (9S,13S,19aR,22R)-22-benzyl-N-(2-(5-cyclopropylisoxazol-3-yl)ethyl)-5-fluoro-13-isobutyl-12-methyl-7,11,14,20-tetraoxo-7,8,9,10,11,12,13,14,17,18,19,19a,20,21,22,23-hexadecahydro-16H-pyrido[2′,1′:6,7][1]oxa[4,7,10,14]tetraazacycloheptadecino[17,16-c]quinoline-9-carboxamide]"
132,339,"CC(C)C[C@H]1C(=O)N2CCCC[C@@H]2C(=O)N[C@H](Cc2ccccc2)COc2cnc3ccc(F)cc3c2C(=O)N[C@H](C(=O)NCCc2cc(C3CC3)no2)CC(=O)N1C [Example 640, (9S,13S,19aR,22R)-22-benzyl-N-(2-(3-cyclopropylisoxazol-5-yl)ethyl)-5-fluoro-13-isobutyl-12-methyl-7,11,14,20-tetraoxo-7,8,9,10,11,12,13,14,17,18,19,19a,20,21,22,23-hexadecahydro-16H-pyrido[2′,11:6,7][1]oxa[4,7,10,14]tetraazacycloheptadecino[17,16-c]quinoline-9-carboxamide]"
87,305,"CC(C)C[C@H]1C(=O)N2CCCC[C@@H]2C(=O)N[C@H](Cc2ccccc2)COc2cnc3ccc(F)cc3c2C(=O)N[C@H](C(=O)NCCc2nc(C3CC3)no2)CC(=O)N1C [Example 641, (9S,13S,19aR,22R)-22-benzyl-N-(2-(3-cyclopropyl-1,2,4-oxadiazol-5-yl)ethyl)-5-fluoro-13-isobutyl-12-methyl-7,11,14,20-tetraoxo-7,8,9,10,11,12,13,14,17,18,19,19a,20,21,22,23-hexadecahydro-16H-pyrido[2′,1′:6,7][1]oxa[4,7,10,14]tetraazacycloheptadecino[17,16-c]quinoline-9-carboxamide]"
168,366,"CC(C)C[C@H]1C(=O)N2CCCC[C@@H]2C(=O)N[C@H](Cc2ccccc2)COc2cnc3ccccc3c2C(=O)N[C@H](C(=O)NCCc2cc(C3CC3)no2)CC(=O)N1C [Example 642, (9S,13S,19aR,22R)-22-benzyl-N-(2-(3-cyclopropylisoxazol-5-yl)ethyl)-13-isobutyl-12-methyl-7,11,14,20-tetraoxo-7,8,9,10,11,12,13,14,17,18,19,19a,20,21,22,23-hexadecahydro-16H-pyrido[2′,1′:6,7][1]oxa[4,7,10,14]tetraazacycloheptadecino[17,16-c]quinoline-9-carboxamide]"
